{"source": "patent US20240099992A1", "about": "“COMPOSITIONS AND METHODS FOR TREATING CANCER” (priority 2021, published 2024)", "key": {"Jurkat (T cell leukemia)": {"tested_on": "Jurkat (T cell leukemia)", "conditions": "50 μM, 100 μM and 500 μM, 24 hours", "protocol": "(§1) 50000 cells of each cell line were plated per well in a 24 well plate, treated with methylenediamine hydrochloride at different concentrations (0 as control, 50 μM, 100 μM and 500 μM) for 24 hours, then the living cells were counted. Jurkat: T cell leukemia, HL-60: acute leukemia cell; MV-411: B-myelomonocytic leukemia."}, "[1]": {"tested_on": "MV-411 (B-myelomonocytic leukemia)", "conditions": "50 μM, 100 μM and 500 μM, 24 hours", "protocol": "as §1"}, "[2]": {"tested_on": "HL-60 (acute leukemia cell)", "conditions": "50 μM, 100 μM and 500 μM, 24 hours", "protocol": "as §1"}, "[3]": {"tested_on": "cancer cell lines C8161, MUM2C, SKOV3, OVACA3, ScNAP, DU145, H1299, A549, MDA231, SNU499", "conditions": "MTT, 24 hours", "protocol": "The cancer cell lines were cultured in DMEM supplemented with 10% fetal bovine serum (FBS) and 100 U/mL penicillin-streptomycin in a humidified 37° C. incubator supplemented with 5% CO2. Cell proliferation was analyzed using MTT proliferation kit (Sigma). In brief, the cells were plated (5.0×10^3 cells per well) in 96-well plates and allowed to adhere overnight. The cells were then treated with methylenediamine dihydrochloride at various concentrations (0, 1 μM, 50 μM; 100 μM. 250 μM, 500 μM and 1 mM for 24 hours before the assay. After the incubation period, 10 μL of the MTT labeling reagent (final concentration 0.5 mg/mL) was added to each well. The microplate was incubated for 4 hours in a humidified atmosphere (37° C., 5% CO2). 100 μL of the Solubilization solution was added into each well. The plate was allowed to stand overnight in the incubator in a humidified atmosphere (37° C., 5% CO2). Complete solubilization of the purple formazan crystals was checked and the absorbance of the samples was measured using a microplate reader with wavelength of 570 nm."}, "[4]": {"tested_on": "H22, a mouse liver cancer cell line", "conditions": "for Tumor suppression rate at day 9: versus normal saline group; for Tumor suppression rate at day 9 / suppression of tumor growth in the mouse liver cancer model (in words): dihydrochloride; for suppression of tumor growth in the mouse liver cancer model (in words): 120 and 240 mg/Kg daily through mouth, dose dependent", "protocol": "H22, a mouse liver cancer cell line from ATCC, was cultured in 1640 medium with 10% […] at 37° C., 5% CO2. The cells were harvest 48 hours later and diluted to 1×10^6 cells/mL with the medium. Kunming mice, male, and body weight of 20 to 23 grams were used for the in vivo study. The animals were allowed free access to food and water throughout the study. All experimental protocols described here were approved by the Ethics Review Committee for Animal Experimentation. 0.2 mL of 1×10^6/ml cell suspension was inoculated into the abdominal cavity of the Kunming mice. The H22 ascites was transplanted 5 days later. The H22 cells in the ascites were harvested, diluted to a concentration of 1×10^7/mL with sterilized NS, then 0.2 mL was injected subcutaneously into the right armpit region of the mice. […] The animals were randomly divided into 3 groups with 7 mice in each and received the drug through mouth daily. Group 1: normal saline; Group 2: Methylenediamine Dihydrochloride low dose of 120 mg/Kg; Group 3: methylenediamine dihydrochloride high dose of 240 mg/Kg. Two perpendicular dimensions (length and width) of the subcutaneous transplantation tumors were measured in every mouse at day 3, day 6 and day 9 to calculate the tumor volume which was compared among groups (volume=½×length×width^2). […] The tumor suppression rate was calculated as: tumor volume in normal saline group minus tumor volume in methylenediamine dihydrochloride treated group, then divided by tumor volume of normal saline group."}}, "note": "Where two headings read alike, the source gives them in different places.", "data": [{"substance": "methylenediamine dihydrochloride", "values": [{"measurement": "suppression of living cells", "setting": "Jurkat (T cell leukemia)", "value": "significant suppression"}, {"measurement": "suppression of living cells", "setting": "[1]", "value": "significant suppression"}, {"measurement": "suppression of living cells", "setting": "[2]", "value": "significant suppression"}, {"measurement": "suppression of cell proliferation (in words)", "setting": "[3]; 0 μM to 1 mM", "value": "suppressed with a dose dependent pattern"}, {"measurement": "concentration at which suppression of most cancer cells' growth started", "setting": "[3]", "value": 50, "unit": "µM"}, {"measurement": "concentration above which proliferation was significantly suppressed", "setting": "[3]; dose dependent pattern", "value": "above 100 μM"}, {"measurement": "Average tumor volume, Day 3", "setting": "[4]; 120 mg/Kg daily through mouth", "value": 0.43, "unit": "cm^3"}, {"measurement": "Average tumor volume, Day 6", "setting": "[4]; 120 mg/Kg daily through mouth", "value": 0.85, "unit": "cm^3"}, {"measurement": "Average tumor volume, Day 9", "setting": "[4]; 120 mg/Kg daily through mouth", "value": 1.21, "unit": "cm^3"}, {"measurement": "Tumor suppression rate at day 9", "setting": "[4]; 120 mg/Kg daily through mouth", "value": 30.5, "unit": "%"}, {"measurement": "Tumor suppression rate at day 9", "setting": "[4]; 120 mg/Kg daily through mouth, listed as Methylenediamine dihydrochloride", "value": 30.5, "unit": "%"}, {"measurement": "Average tumor volume, Day 3", "setting": "[4]; 240 mg/Kg daily through mouth", "value": 0.41, "unit": "cm^3"}, {"measurement": "Average tumor volume, Day 6", "setting": "[4]; 240 mg/Kg daily through mouth", "value": 0.78, "unit": "cm^3"}, {"measurement": "Average tumor volume, Day 9", "setting": "[4]; 240 mg/Kg daily through mouth", "value": 1.10, "unit": "cm^3"}, {"measurement": "Tumor suppression rate at day 9", "setting": "[4]; 240 mg/Kg daily through mouth", "value": 36.8, "unit": "%"}, {"measurement": "Tumor suppression rate at day 9", "setting": "[4]; 240 mg/Kg daily through mouth, listed as Methylenediamine dihydrochloride", "value": 36.8, "unit": "%"}, {"measurement": "suppression of tumor growth in the mouse liver cancer model (in words)", "setting": "[4]; listed as ethylenediamine dihydrochloride", "value": "effective in treating cancers"}, {"measurement": "suppression of tumor growth in the mouse liver cancer model (in words)", "setting": "[4]; listed as methylenediamine dihydrochloride", "value": "successfully suppressed tumor growth"}]}]}
